# Reference: patent US20090018134A1, “Compounds - 945” (AstraZeneca AB, priority 2007, published 2009)
# Molecular target: T1, mTOR (Homo sapiens, UniProt P42345)
# T1 construct: FLAG; made in house
# Experiment: In Vitro mTOR Kinase Assay (Echo), Test (a)(ii)
# Assay type: biochemical
# Conditions: read-out: mTOR Kinase Assay (Echo)
# Summary of the method: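 Inhibition of truncated mTOR (1362-2549, FLAG-tagged, purified from stably transfected HEK293 cells) is measured as reduced AlphaScreen signal from a phospho-T389-recognising antibody bound to the biotinylated peptide product. Kinase incubation lasts 2 hours at room temperature. Potency is given as IC50.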
# T1 sequence (P42345 1362-2549): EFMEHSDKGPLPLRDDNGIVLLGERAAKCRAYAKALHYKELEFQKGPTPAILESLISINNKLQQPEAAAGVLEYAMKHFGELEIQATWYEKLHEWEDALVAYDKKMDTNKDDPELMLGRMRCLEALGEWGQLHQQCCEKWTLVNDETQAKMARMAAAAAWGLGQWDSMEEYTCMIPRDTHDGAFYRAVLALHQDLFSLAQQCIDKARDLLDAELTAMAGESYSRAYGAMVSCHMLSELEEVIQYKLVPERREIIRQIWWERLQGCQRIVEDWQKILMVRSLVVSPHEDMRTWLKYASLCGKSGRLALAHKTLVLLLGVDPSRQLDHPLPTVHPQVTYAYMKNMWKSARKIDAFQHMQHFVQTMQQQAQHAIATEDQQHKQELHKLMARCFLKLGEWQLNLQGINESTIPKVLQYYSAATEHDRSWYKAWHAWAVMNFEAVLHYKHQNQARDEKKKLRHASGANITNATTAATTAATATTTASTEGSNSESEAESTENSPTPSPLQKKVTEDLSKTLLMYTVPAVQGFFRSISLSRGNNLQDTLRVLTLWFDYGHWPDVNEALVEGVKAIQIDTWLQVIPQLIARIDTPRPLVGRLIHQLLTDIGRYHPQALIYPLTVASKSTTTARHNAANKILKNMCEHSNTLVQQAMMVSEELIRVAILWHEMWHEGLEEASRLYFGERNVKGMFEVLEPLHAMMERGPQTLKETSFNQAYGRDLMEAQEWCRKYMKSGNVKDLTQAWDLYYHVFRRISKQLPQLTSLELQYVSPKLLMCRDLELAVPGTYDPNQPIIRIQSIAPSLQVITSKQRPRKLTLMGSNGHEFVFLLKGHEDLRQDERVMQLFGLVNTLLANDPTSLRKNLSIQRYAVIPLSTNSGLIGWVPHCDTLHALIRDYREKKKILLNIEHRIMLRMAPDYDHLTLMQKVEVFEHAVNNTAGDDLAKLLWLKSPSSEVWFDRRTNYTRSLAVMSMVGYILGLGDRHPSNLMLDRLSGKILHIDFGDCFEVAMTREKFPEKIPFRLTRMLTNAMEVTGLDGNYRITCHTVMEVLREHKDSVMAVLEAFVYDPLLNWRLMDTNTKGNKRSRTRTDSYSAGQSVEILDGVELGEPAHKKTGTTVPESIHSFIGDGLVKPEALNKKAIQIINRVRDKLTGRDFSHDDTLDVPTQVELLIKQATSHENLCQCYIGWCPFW
row,Structure (SMILES),IC50 [nM]
1,"C[C@H]1COCCN1c1cc(C2(S(C)(=O)=O)CCCC2)nc(-c2ccc(NC(=O)Nc3ccc(C(F)(F)F)cc3)cc2)n1 [Example 4k, 1-[4-[4-[(3S)-3-methylmorpholin-4-yl]-6-(1-methylsulfonylcyclopentyl)pyrimidin-2-yl]phenyl]-3-[4-(trifluoromethyl)phenyl]urea]",9.05
2,"C[C@H]1COCCN1c1cc(C2(S(C)(=O)=O)CCCC2)nc(-c2ccc(NC(=O)Nc3ccccn3)cc2)n1 [Example 4l, 1-[4-[4-[(3S)-3-methylmorpholin-4-yl]-6-(1-methylsulfonylcyclopentyl)pyrimidin-2-yl]phenyl]-3-pyridin-2-yl-urea]",3.69
3,"C[C@H]1COCCN1c1cc(C2(S(C)(=O)=O)CCCC2)nc(-c2ccc(NC(=O)Nc3cnn(C)c3)cc2)n1 [Example 4m, 1-[4-[4-[(3S)-3-methylmorpholin-4-yl]-6-(1-methylsulfonylcyclopentyl)pyrimidin-2-yl]phenyl]-3-(1-methylpyrazol-4-yl)urea]",2.45
4,"C[C@H]1COCCN1c1cc(C2(S(C)(=O)=O)CCCC2)nc(-c2ccc(NC(=O)NCc3ncc[nH]3)cc2)n1 [Example 4n, 3-(1H-imidazol-2-ylmethyl)-1-[4-[4-[(3S)-3-methylmorpholin-4-yl]-6-(1-methylsulfonylcyclopentyl)pyrimidin-2-yl]phenyl]urea]",39.2
5,"CNC(=O)Nc1ccc(-c2nc(N3CCOC[C@@H]3C)cc(C3(S(C)(=O)=O)CCC3)n2)cc1 [Example 5, 3-Methyl-1-[4-[4-[(3S)-3-methylmorpholin-4-yl]-6-(1-methylsulfonylcyclobutyl)pyrimidin-2-yl]phenyl]urea]",0.802
6,"CCNC(=O)Nc1ccc(-c2nc(N3CCOC[C@@H]3C)cc(C3(S(C)(=O)=O)CCC3)n2)cc1 [Example 5a, 3-ethyl-1-[4-[4-[(3S)-3-methylmorpholin-4-yl]-6-(1-methylsulfonylcyclobutyl)pyrimidin-2-yl]phenyl]urea]",0.289
7,"CC(C)NC(=O)Nc1ccc(-c2nc(N3CCOC[C@@H]3C)cc(C3(S(C)(=O)=O)CCC3)n2)cc1 [Example 5c, 1-[4-[4-[(3S)-3-methylmorpholin-4-yl]-6-(1-methylsulfonylcyclobutyl)pyrimidin-2-yl]phenyl]-3-propan-2-yl-urea]",6.81
8,"C[C@H]1COCCN1c1cc(C2(S(C)(=O)=O)CCC2)nc(-c2ccc(NC(=O)NC3CCC3)cc2)n1 [Example 5d, 3-cyclobutyl-1-[4-[4-[(3S)-3-methylmorpholin-4-yl]-6-(1-methylsulfonylcyclobutyl)pyrimidin-2-yl]phenyl]urea]",3.85
9,"C[C@H]1COCCN1c1cc(C2(S(C)(=O)=O)CCC2)nc(-c2ccc(NC(=O)NC(C)(C)CO)cc2)n1 [Example 5f, 3-(1-hydroxy-2-methyl-propan-2-yl)-1-[4-[4-[(3S)-3-methylmorpholin-4-yl]-6-(1-methylsulfonylcyclobutyl)pyrimidin-2-yl]phenyl]urea]",7.36
10,"C[C@H]1COCCN1c1cc(C2(S(C)(=O)=O)CCC2)nc(-c2ccc(NC(=O)NCCN(C)C)cc2)n1 [Example 5g, 3-(2-dimethylaminomethyl)-1-[4-[4-[(3S)-3-methylmorpholin-4-yl]-6-(1-methylsulfonylcyclobutyl)pyrimidin-2-yl]phenyl]urea]",66.8
11,"CCCNC(=O)Nc1ccc(-c2nc(N3CCOC[C@@H]3C)cc(C3(S(C)(=O)=O)CCC3)n2)cc1 [Example 5h, 1-[4-[4-[(3S)-3-methylmorpholin-4-yl]-6-(1-methylsulfonylcyclobutyl)pyrimidin-2-yl]phenyl]-3-propyl-urea]",2.34
12,"CC(C)CNC(=O)Nc1ccc(-c2nc(N3CCOC[C@@H]3C)cc(C3(S(C)(=O)=O)CCC3)n2)cc1 [Example 5i, 1-[4-[4-[(3S)-3-methylmorpholin-4-yl]-6-(1-methylsulfonylcyclobutyl)pyrimidin-2-yl]phenyl]-3-(2-methylpropyl)urea]",9.88
13,"C[C@H]1COCCN1c1cc(C2(S(C)(=O)=O)CCC2)nc(-c2ccc(NC(=O)NCCCO)cc2)n1 [Example 5j, 3-(3-hydroxypropyl)-1-[4-[4-[(3S)-3-methylmorpholin-4-yl]-6-(1-methylsulfonylcyclobutyl)pyrimidin-2-yl]phenyl]urea]",0.239
14,"C[C@H]1COCCN1c1cc(C2(S(C)(=O)=O)CCC2)nc(-c2ccc(NC(=O)Nc3ccc(C(F)(F)F)cc3)cc2)n1 [Example 5k, 1-[4-[4-[(3S)-3-methylmorpholin-4-yl]-6-(1-methylsulfonylcyclobutyl)pyrimidin-2-yl]phenyl]-3-[4-(trifluoromethyl)phenyl]urea]",3.33
15,"C[C@H]1COCCN1c1cc(C2(S(C)(=O)=O)CCC2)nc(-c2ccc(NC(=O)Nc3ccccn3)cc2)n1 [Example 5l, 1-[4-[4-[(3S)-3-methylmorpholin-4-yl]-6-(1-methylsulfonylcyclobutyl)pyrimidin-2-yl]phenyl]-3-pyridin-2-yl-urea]",0.248
16,"C[C@H]1COCCN1c1cc(C2(S(C)(=O)=O)CCC2)nc(-c2ccc(NC(=O)Nc3cnn(C)c3)cc2)n1 [Example 5m, 1-[4-[4-[(3S)-3-methylmorpholin-4-yl]-6-(1-methylsulfonylcyclobutyl)pyrimidin-2-yl]phenyl]-3-(1-methylpyrazol-4-yl)urea]",0.69
17,"C[C@H]1COCCN1c1cc(C2(S(C)(=O)=O)CCC2)nc(-c2ccc(NC(=O)NCc3ncc[nH]3)cc2)n1 [Example 5n, 3-(1H-imidazol-2-ylmethyl)-1-[4-[4-[(3S)-3-methylmorpholin-4-yl]-6-(1-methylsulfonylcyclobutyl)pyrimidin-2-yl]phenyl]urea]",8.28
18,"C[C@H]1COCCN1c1cc(C2(S(=O)(=O)c3ccncc3)CC2)nc(-c2ccc(NC(=O)NC3CCC3)cc2)n1 [Example 6, 3-Cyclobutyl-1-[4-[4-[(3S)-3-methylmorpholin-4-yl]-6-(1-pyridin-4-ylsulfonylcyclopropyl)pyrimidin-2-yl]phenyl]urea]",1

# The next lines start with the values.
row,IC50 [nM],Structure (SMILES)
1,2.93,"C[C@H]1COCCN1c1cc(C2(S(=O)(=O)c3ccncc3)CC2)nc(-c2ccc(NC(=O)Nc3ccccn3)cc2)n1 [Example 6a, 1-[4-[4-[(3S)-3-methylmorpholin-4-yl]-6-(1-pyridin-4-ylsulfonylcyclopropyl)pyrimidin-2-yl]phenyl]-3-pyridin-2-yl-urea]"
2,6.12,"CC(C)CNC(=O)Nc1ccc(-c2nc(N3CCOC[C@@H]3C)cc(C3(S(=O)(=O)c4ccncc4)CC3)n2)cc1 [Example 6b, 1-[4-[4-[(3S)-3-methylmorpholin-4-yl]-6-(1-pyridin-4-ylsulfonylcyclopropyl)pyrimidin-2-yl]phenyl]-3-(2-methylpropyl)urea]"
3,3.21,"CC(C)NC(=O)Nc1ccc(-c2nc(N3CCOC[C@@H]3C)cc(C3(S(=O)(=O)c4ccncc4)CC3)n2)cc1 [Example 6c, 1-[4-[4-[(3S)-3-methylmorpholin-4-yl]-6-(1-pyridin-4-ylsulfonylcyclopropyl)pyrimidin-2-yl]phenyl]-3-propan-2-yl-urea]"
4,0.874,"CCNC(=O)Nc1ccc(-c2nc(N3CCOC[C@@H]3C)cc(C3(S(=O)(=O)c4ccncc4)CC3)n2)cc1 [Example 6d, 3-ethyl-1-[4-[4-[(3S)-3-methylmorpholin-4-yl]-6-(1-pyridin-4-ylsulfonylcyclopropyl)pyrimidin-2-yl]phenyl]urea]"
5,67.3,"C[C@H]1COCCN1c1cc(C2(S(=O)(=O)c3ccncc3)CC2)nc(-c2ccc(NC(=O)NCCN(C)C)cc2)n1 [Example 6e, 3-(2-dimethylaminoethyl)-1-[4-[4-[(3S)-3-methylmorpholin-4-yl]-6-(1-pyridin-4-ylsulfonylcyclopropyl)pyrimidin-2-yl]phenyl]urea]"
6,0.794,"C[C@H]1COCCN1c1cc(C2(S(=O)(=O)c3ccncc3)CC2)nc(-c2ccc(NC(=O)NCCO)cc2)n1 [Example 6f, 3-(2-hydroxyethyl)-1-[4-[4-[(3S)-3-methylmorpholin-4-yl]-6-(1-pyridin-4-ylsulfonylcyclopropyl)pyrimidin-2-yl]phenyl]urea]"
7,2.25,"CCCNC(=O)Nc1ccc(-c2nc(N3CCOC[C@@H]3C)cc(C3(S(=O)(=O)c4ccncc4)CC3)n2)cc1 [Example 6g, 1-[4-[4-[(3S)-3-methylmorpholin-4-yl]-6-(1-pyridin-4-ylsulfonylcyclopropyl)pyrimidin-2-yl]phenyl]-3-propyl-urea]"
8,4.62,"C[C@H]1COCCN1c1cc(C2(S(=O)(=O)c3ccncc3)CC2)nc(-c2ccc(NC(=O)Nc3ccc(C(F)(F)F)cc3)cc2)n1 [Example 6i, 1-[4-[4-[(3S)-3-methylmorpholin-4-yl]-6-(1-pyridin-4-ylsulfonylcyclopropyl)pyrimidin-2-yl]phenyl]-3-[4-(trifluoromethyl)phenyl]urea]"
9,5.93,"C[C@H]1COCCN1c1cc(C2(S(=O)(=O)c3ccncc3)CC2)nc(-c2ccc(NC(=O)NC(C)(C)CO)cc2)n1 [Example 6j, 3-(1-hydroxy-2-methyl-propan-2-yl)-1-[4-[4-[(3S)-3-methylmorpholin-4-yl]-6-(1-pyridin-4-ylsulfonylcyclopropyl)pyrimidin-2-yl]phenyl]urea]"
10,1.86,C[C@H]1COCCN1c1cc(C2(S(=O)(=O)c3ccncc3)CC2)nc(-c2ccc(NC(=O)NCCCO)cc2)n1 [Example 6k]
11,1.19,"C[C@H]1COCCN1c1cc(C2(S(=O)(=O)c3ccncc3)CC2)nc(-c2ccc(NC(=O)Nc3cnn(C)c3)cc2)n1 [Example 6l, 1-[4-[4-[(3S)-3-methylmorpholin-4-yl]-6-(1-pyridin-4-ylsulfonylcyclopropyl)pyrimidin-2-yl]phenyl]-3-(1-methylpyrazol-4-yl)urea]"
12,0.936,"C[C@H]1COCCN1c1cc(C2(S(=O)(=O)c3ccncc3)CC2)nc(-c2ccc(NC(=O)NC3CC3)cc2)n1 [Example 6m, 3-cyclopropyl-1-[4-[4-[(3S)-3-methylmorpholin-4-yl]-6-(1-pyridin-4-ylsulfonylcyclopropyl)pyrimidin-2-yl]phenyl]urea]"

# Same assay, conditions: table of enzyme assay Test (a)(ii); read-out: Test (a)(ii) IC50
row,IC50 [nM],Structure (SMILES)
1,2.74,"C[C@H]1COCCN1c1cc(C2(S(C)(=O)=O)CCC2)nc(-c2ccc(NC(=O)NC3CCC3)cc2)n1 [Example 5d, 3-cyclobutyl-1-[4-[4-[(3S)-3-methylmorpholin-4-yl]-6-(1-methylsulfonylcyclobutyl)pyrimidin-2-yl]phenyl]urea]"
2,4.85,"C[C@H]1COCCN1c1cc(C2(S(C)(=O)=O)CCC2)nc(-c2ccc(NC(=O)NC(C)(C)CO)cc2)n1 [Example 5f, 3-(1-hydroxy-2-methyl-propan-2-yl)-1-[4-[4-[(3S)-3-methylmorpholin-4-yl]-6-(1-methylsulfonylcyclobutyl)pyrimidin-2-yl]phenyl]urea]"
3,0.173,"C[C@H]1COCCN1c1cc(C2(S(C)(=O)=O)CCC2)nc(-c2ccc(NC(=O)NCCCO)cc2)n1 [Example 5j, 3-(3-hydroxypropyl)-1-[4-[4-[(3S)-3-methylmorpholin-4-yl]-6-(1-methylsulfonylcyclobutyl)pyrimidin-2-yl]phenyl]urea]"
4,0.237,"C[C@H]1COCCN1c1cc(C2(S(C)(=O)=O)CCC2)nc(-c2ccc(NC(=O)Nc3ccccn3)cc2)n1 [Example 5l, 1-[4-[4-[(3S)-3-methylmorpholin-4-yl]-6-(1-methylsulfonylcyclobutyl)pyrimidin-2-yl]phenyl]-3-pyridin-2-yl-urea]"
5,0.604,"C[C@H]1COCCN1c1cc(C2(S(C)(=O)=O)CCC2)nc(-c2ccc(NC(=O)Nc3cnn(C)c3)cc2)n1 [Example 5m, 1-[4-[4-[(3S)-3-methylmorpholin-4-yl]-6-(1-methylsulfonylcyclobutyl)pyrimidin-2-yl]phenyl]-3-(1-methylpyrazol-4-yl)urea]"
